# Source: article PMC4890005, “Newly identified motifs in Candida albicans Cdr1 protein nucleotide binding domains are pleiotropic drug resistance subfamily-specific and functionally asymmetric” (Scientific Reports, 2016)
# How the values were obtained:
# Cdr1p (Cdr1p-GFP) [1] = target: T1, Cdr1p (Cdr1p-GFP) (Candida albicans, UniProt Q5ANA3); assay: R6G binding, from drug transport kinetics of overexpressing yeast (method not detailed); format: cell-based
# T1 construct: gene CDR1; plasmid pPSCDR1-GFP integrated at PDR5 locus of S. cerevisiae AD1-8u-; plasma membrane fractions or cells
# Cdr1p (Cdr1p-GFP) [2] = target: T2, Cdr1p (Cdr1p-GFP) (Candida albicans, UniProt Q5ANA3, DEL903-903); assay: cell-based
# T2 construct: gene CDR1
# Source text: (§1) R6G binding, from drug transport kinetics of overexpressing yeast (method not detailed) on Cdr1p (Cdr1p-GFP)
# Cdr1p (Cdr1p-GFP) [3] = target: T3, Cdr1p (Cdr1p-GFP) (Candida albicans, UniProt Q5ANA3, DEL905-905); assay: cell-based
# T3 construct: gene CDR1
# Source text: as §1
# [4] = tested on: Nc1ncnc2c1ncn2[C@@H]1O[C@H](COP(=O)(O)OP(=O)(O)OP(=O)(O)O)[C@@H](O)[C@H]1O; assay: cells, lysate or membranes; conditions: 30 °C, Mg-ATP, GFP-tagged wild type
# Source text: oligomycin-sensitive ATPase, Pi release, plasma membrane fraction; Lineweaver-Burk on Cdr1p (Cdr1p-GFP)
Compound,Kd (Cdr1p (Cdr1p-GFP) [1]) [µM],Kd (Cdr1p (Cdr1p-GFP) [2]) [µM],Kd (Cdr1p (Cdr1p-GFP) [3]) [µM],Km [4] [mM],Vmax [4] [µmol/min/mg]
CCN=c1cc2oc3cc(NCC)c(C)cc3c(-c3ccccc3C(=O)OCC)c-2cc1C [Rhodamine 6G],9 ± 1.8,11.9 ± 1.9,25 ± 2,,
Cdr1p (Cdr1p-GFP) (Candida albicans SC5314),,,,2.1 ± 0.5,0.105
